Measured values published in patent US11708344B2, “Flavone derivatives for the treatment and prophylaxis of hepatitis B virus disease” (Hoffmann-La Roche Inc., priority 2018, dated 2023).

Columns and labels:
cccDNA in HepDES19 cells = assay: cccDNA Southern Blot assay; format: cell-based, HBV; conditions: 5 days' compound treatment, FIG. 1
Experimental: HepDES19 cells were seeded at 4*10^6 cells per T150 in the culture medium (Dulbecco's Modified Eagle Medium: Nutrient Mixture F-12 [DMEM-F12, Gibco Cat. 11320-82], 10% Fetal Bovine Serum [FBS, Clontech Cat. 631101], 0.1 mM Non-Essential Amino Acids Solution [NEAA, Gibco Cat. 11140-050], 50 μg/mL Penicillin-Streptomycin [PS, Invitrogen Cat. 15140-163], 500 μg/mL Geneticin [G418, Invitrogen Cat. 10131-027]) in the absence of Tet for 8 days. These cells were seeded at the density of 1×10^6 cells per well in 6-well plate. At 24 hours after seeding, serial dilutions of compounds made with DMSO (Sigma, Cat. D2650) were further diluted with the same culture medium as described above before they were added to the cells to reach desired final compound concentrations and 1% DMSO concentration. After 5 days' compound treatment, the cells growing in one well from 6-well plate were re-suspended with 500 μL re-suspension buffer (50 mM tris [hydroxymethyl]amino methane pH 7.5), 10 mM ethylenediaminetetraacetic acid (EDTA), 50 μg/mL RNase A [Qiagen, Cat. 158922], 500 μL of 1.2% sodium dodecyl sulfate (SDS) was then added into the re-suspended cells to lyse the cells. After 15 minutes' incubation, 700 μL precipitation buffer (3M cesium chloride, 1M potassium acetate, 0.67M acetic acid) was added and the lysate was incubated at 4° C. for 2 h. […]

[1] = test system: HBsAg in HBV-infected PHH; assay: Cryopreserved primary human hepatocytes (PHH) HBV infection assay, extracellular HBsAg (CLIA); format: cell-based; conditions: Hepatitis B virus, Hepatocyte, 216 h, read-out: HBsAg IC50, Cryopreserved PHH infected with HBV, 9 days post-compound treatment, extracellular HBsAg
Method in brief: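 Cryopreserved PHH were infected with 5.8×10^6 HBV genome equivalents in medium with 4% PEG8000 and 1% DMSO. After 9 days of treatment, extracellular HBsAg was measured by CLIA, and IC50 was derived from a 4-parameter logistic fit.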

## O=c1cc(-c2ccc(Br)cc2OCCO[C@H]2C[C@@H](C(=O)O)C2)oc2c(Cl)cccc12 [Example C003-A, Cis-3-[2-[5-bromo-2-(8-chloro-4-oxo-chromen-2-yl)phenoxy]ethoxy]cyclobutanecarboxylic acid]
cccDNA in HepDES19 cells
  cccDNA level (Southern Blot): dose-dependently reduced cccDNA level
[1]
  IC50: 8.77 µM
